Read-outs that look alike come from different tables or passages of the source.
Tests used:
[1] = test system: SMN2 minigene (full length SMN2 minigene mRNA containing SMN2 exon 7); assay: SMN2 minigene mRNA splicing RT-qPCR assay in cultured cells; format: cell-based, human; conditions: Homo sapiens, HEK293-H, read-out: EC1.5x for production of full length SMN2 mRNA
Procedure, shortened: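 Read-out: full-length (exon 7-included) SMN2 minigene mRNA by multiplex RT-qPCR with GAPDH, efficiency-corrected (1+E)^−Ct, GAPDH-normalized and divided by vehicle. Stably transfected HEK293H cells, 24 h compound exposure, duplicates per concentration. Value is EC1.5x, reported as star ranges.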

Smn protein = Smn protein assay in cultured cells (SMN HTRF); format: cell-based, human; conditions: 48 hours; for EC1.5x (concentration giving 1.5-fold Smn protein increase): SMA Type 1 patient fibroblast cells (GM03813), 7-point concentration curve, SMN HTRF, concentration producing 1.5 times Smn protein vs DMSO vehicle control, read-out: EC1.5x for Smn protein expression; for maximum fold (Fold) increase of Smn protein: SMA patient fibroblast cells, 7-point concentration data, fold increase relative to vehicle control (SMN HTRF)
Procedure, shortened: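 Lysates in RIPA with protease inhibitors are incubated overnight at room temperature with HTRF anti-SMN antibodies. EC1.5x is derived from fold increase in ΔF over vehicle.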

[2] = HEK293H cells stably transfected with SMN2-A minigene, 24 hours, 7-point concentration curve, 1.5-fold relative to vehicle-treated cells

Row | melting point | SMILES | EC (1.5-fold) [1, 2] | EC1.5x (concentration giving 1.5-fold Smn protein increase) (Smn protein) | maximum fold (Fold) increase of Smn protein (Smn protein) | EC (1.5-fold) ([1]; 24 h)
1 | 224 to 227 °C | Cc1cn2cc(-c3cc4ccc(N5CCC(N(C)C)CC5)cc4oc3=O)cc2cn1 [Compound 716, 7-[4-(dimethylamino)piperidin-1-yl]-3-(3-methylpyrrolo[1,2-a]pyrazin-7-yl)-2H-chromen-2-one] | < 0.1 µM | 1000 to 3000 nM | **** (fold increase between >1.5 and ≤1.65) | –
2 | 275 to 280 °C | O=c1oc2cc(N3CCNCC3)ccc2cc1-c1cn2ccsc2n1 [Compound 88, 3-(imidazo[2,1-b][1,3]thiazol-6-yl)-7-(piperazin-1-yl)-2H-chromen-2-one] | < 0.1 µM | 1000 to 3000 nM | *** (fold increase between >1.35 and ≤1.5) | –
3 | 267 to 277 °C | C[C@@H]1CN(c2ccc3cc(-c4cn5cc(F)cc(F)c5n4)c(=O)oc3c2)C[C@H](C)N1 [Compound 523, 3-(6,8-difluoroimidazo[1,2-a]pyridin-2-yl)-7-[(3R,5S)-3,5-dimethylpiperazin-1-yl]-2H-chromen-2-one] | 0.3 to 1 µM | – | ** (fold increase between >1.2 and ≤1.35) | –
4 | 285 to 287 °C | Cc1cn2cc(-c3cc4ccc(N5CCN6C[C@H](O)C[C@H]6C5)cc4oc3=O)nc2c(C)n1 [Compound 758, 3-(6,8-dimethylimidazo[1,2-a]pyrazin-2-yl)-7-[(7R,8aS)-7-hydroxyhexahydropyrrolo[1,2-a]pyrazin-2(1H)-yl]-2H-chromen-2-one] | 0.3 to 1 µM | – | * (maximum fold increase of ≤1.2) | –
5 | 151 to 153 °C | COc1cc(OC)cc(-c2cc3ccc(N4CCCN(C)CC4)cc3oc2=O)c1 [Compound 411, 3-(3,5-dimethoxyphenyl)-7-(4-methyl-1,4-diazepan-1-yl)-2H-chromen-2-one] | 3 to 30 µM | – | * (maximum fold increase of ≤1.2) | –
6 | 248 to 252 °C | C[C@@H]1CN(c2ccc3cc(-c4nc5ccccc5s4)c(=O)oc3c2)C[C@H](C)N1 [Compound 24, 3-(1,3-benzothiazol-2-yl)-7-[(3R,5S)-3,5-dimethylpiperazin-1-yl]-2H-chromen-2-one] | 1 to 3 µM | – | * (maximum fold increase of ≤1.2) | –
7 | 245 to 253 °C | Cc1cc(Cl)c2nc(-c3cc4ccc(N5CCN(C)CC5)cc4oc3=O)cn2c1 [Compound 343, 3-(8-chloro-6-methylimidazo[1,2-a]pyridin-2-yl)-7-(4-methylpiperazin-1-yl)-2H-chromen-2-one] | 0.1 to 0.3 µM | – | * (maximum fold increase of ≤1.2) | –
8 | 168 to 172 °C | Cc1cn2cc(-c3cc4ccc(CCCN5CCOCC5)cc4oc3=O)nc2c(C)n1 [Compound 884, 3-(6,8-dimethylimidazo[1,2-a]pyrazin-2-yl)-7-[3-(morpholin-4-yl)propyl]-2H-chromen-2-one] | < 0.1 µM | < 300 nM | ***** (fold increase >1.65) | –
9 | 280 to 281 °C | Cc1cn2cc(-c3cc4ccc(C5CCNCC5)cc4oc3=O)cnc2n1 [Compound 834, 3-(2-methylimidazo[1,2-a]pyrimidin-6-yl)-7-(piperidin-4-yl)-2H-chromen-2-one] | < 0.1 µM | < 300 nM | ***** (fold increase >1.65) | –
10 | 168 to 170 °C | COc1ccc(-c2cc3ccc(N4CCNCC4)cc3oc2=O)cc1OC [Cpd 316, 3-(3,4-dimethoxyphenyl)-7-(piperazin-1-yl)-2H-chromen-2-one] | 0.3 to 1 µM | – | ** (fold increase between >1.2 and ≤1.35) | –
11 | 165 to 168 °C | CCN(CC)CCCc1ccc2cc(-c3cn4cc(C)nc(C)c4n3)c(=O)oc2c1 [Compound 969, 7-[3-(diethylamino)propyl]-3-(6,8-dimethylimidazo[1,2-a]pyrazin-2-yl)-2H-chromen-2-one] | < 0.1 µM | < 300 nM | **** (fold increase between >1.5 and ≤1.65) | –
12 | 260 to 262 °C | Cc1nc(Cl)cn2cc(-c3cc4ccc(N5CCN6CCC[C@H]6C5)cc4oc3=O)nc12 [Compound 711, 3-(6-chloro-8-methylimidazo[1,2-a]pyrazin-2-yl)-7-[(8aS)-hexahydropyrrolo[1,2-a]pyrazin-2(1H)-yl]-2H-chromen-2-one] | < 0.1 µM | 1000 to 3000 nM | *** (fold increase between >1.35 and ≤1.5) | –

Row | SMILES | melting point | EC (1.5-fold) [1, 2] | EC1.5x (concentration giving 1.5-fold Smn protein increase) (Smn protein) | maximum fold (Fold) increase of Smn protein (Smn protein) | EC (1.5-fold) ([1]; 24 h)
13 | O=c1oc2cc(N3CCNCC3)c(F)cc2cc1-c1nc2ccccc2s1 [Compound 157, 3-(1,3-benzothiazol-2-yl)-6-fluoro-7-(piperazin-1-yl)-2H-chromen-2-one] | 255 to 260 °C | – | – | * (maximum fold increase of ≤1.2) | 0.1 to 0.3 µM

— patent publication USRE47689E1, “Compounds for treating spinal muscular atrophy” (PTC Therapeutics, Inc., priority 2011, dated 2019)
